pIC50: −log10 of the molar value. Counter-ions that a name gives are not always drawn.
Assays:
NLRP3 [1] = biological target: T1, NLRP3 (Homo sapiens, UniProt Q96P20); assay: THP-1 cells pyroptosis assay
Experimental: The cells were routinely passaged and grown to confluency (~10^6 cells/ml). On the day of the experiment, THP-1 cells were harvested and resuspended into RPMI medium (without FBS). […] To this diluted cell solution was added LPS (Sigma #L4524) to give a 1 μg/ml Final Assay Concentration (FAC). 40 μl of the final preparation was aliquoted into each well of a 96-well plate. The plate thus prepared was used for compound screening.

NLRP3 [2] = biological target: T1, NLRP3; assay: Human whole blood IL-1β release assay; type: cell-based; parameters: Human whole blood in Li-heparin tubes was obtained from healthy donors; from tissue; host or cells: human whole blood from healthy donors; details: LPS 1 μg/ml, nigericin 10 μM, IL-1β AlphaLisa
Text: For systemic delivery, the ability to inhibit NLRP3 when the compounds are present within the bloodstream is of great importance.

[3] = biological target: T2, hERG cardiac potassium channel (Homo sapiens, UniProt Q12809); assay: hERG screening assay (automated patch clamp, CHO crelox hERG cells); type: cell-based; details: whole-cell patch clamp, 35-37° C.
T2 construct: host or cells: CHO crelox hERG cell line (Chinese hamster)
T2 sequence (Q12809 whole entry): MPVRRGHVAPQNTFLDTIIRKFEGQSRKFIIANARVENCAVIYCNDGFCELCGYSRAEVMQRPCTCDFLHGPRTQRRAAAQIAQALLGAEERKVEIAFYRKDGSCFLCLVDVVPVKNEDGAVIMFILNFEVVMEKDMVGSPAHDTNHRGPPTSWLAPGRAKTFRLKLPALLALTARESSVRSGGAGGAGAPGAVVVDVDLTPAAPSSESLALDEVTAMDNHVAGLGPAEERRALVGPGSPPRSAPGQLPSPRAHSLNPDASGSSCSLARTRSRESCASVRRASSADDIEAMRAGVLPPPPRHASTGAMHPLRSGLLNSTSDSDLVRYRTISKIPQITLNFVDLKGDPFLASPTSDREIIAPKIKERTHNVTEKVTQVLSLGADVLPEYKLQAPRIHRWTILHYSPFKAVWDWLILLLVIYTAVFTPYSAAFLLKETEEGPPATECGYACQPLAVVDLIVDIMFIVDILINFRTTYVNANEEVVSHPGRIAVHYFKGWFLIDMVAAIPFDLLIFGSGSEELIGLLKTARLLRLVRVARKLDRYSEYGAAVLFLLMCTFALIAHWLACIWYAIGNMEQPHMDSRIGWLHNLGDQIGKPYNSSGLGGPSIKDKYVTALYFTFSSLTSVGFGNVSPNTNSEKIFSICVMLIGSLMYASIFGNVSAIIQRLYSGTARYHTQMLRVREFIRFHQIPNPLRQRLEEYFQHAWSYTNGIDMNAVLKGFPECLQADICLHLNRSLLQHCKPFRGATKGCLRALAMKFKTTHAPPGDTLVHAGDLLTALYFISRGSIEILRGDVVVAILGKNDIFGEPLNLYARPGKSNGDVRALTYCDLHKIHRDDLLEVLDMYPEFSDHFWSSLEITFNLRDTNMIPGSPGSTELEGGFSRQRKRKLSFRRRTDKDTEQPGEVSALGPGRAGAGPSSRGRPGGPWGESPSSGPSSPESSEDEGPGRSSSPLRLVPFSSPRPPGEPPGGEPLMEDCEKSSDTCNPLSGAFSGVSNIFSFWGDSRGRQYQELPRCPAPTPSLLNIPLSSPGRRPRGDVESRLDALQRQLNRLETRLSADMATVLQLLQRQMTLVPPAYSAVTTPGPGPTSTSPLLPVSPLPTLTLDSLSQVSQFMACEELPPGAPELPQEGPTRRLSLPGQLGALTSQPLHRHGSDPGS
Text: In the drug development process of small molecules, one of the most frequent adverse side effects, leading to the failure of drugs, is the cardiac arrhythmias. […] Having no or low inhibition of the hERG cardiac potassium channel is therefore considered as beneficial.
Ready-to-use frozen instant CHO-hERG cells were cryopreserved at Evotec (Germany) and used directly in the experiments.
The extracellular solution contains (in mM): NaCl 150; KCl 4; CaCl2 1; MgCl2 1; HEPES 10; pH 7.2-7.4 with NaOH, osmolarity 290-330 mOsm. The internal solution contains (in mM): KCl, 10; KF, 100; NaCl, 10; HEPES, 10; EGTA, 20; pH=7.0-7.4 with KOH, osmolarity 260-300 mOsm.
The effects of a compound on hERG K+-currents parameters will be evaluated at 2 concentrations in at least 4 cells.
K+ currents are measured with the patch-voltage-clamp technique in the whole-cell configuration at 35-37° C.
The amplitudes of IKhERG were recorded in each concentration of drug and they were compared to the vehicle control values (taken as 100%) to define fractional blocks. The concentration-response data were fitted with the following relationship:
Concentration-response curves were fitted by non-linear regression analysis using EworkBook suite (ID Business Solutions Ltd, UK). Data fit was done with the 4 Parameter Logistic Model (fit=(A+(B/(1+((x/C)^D)))), where A=0 and B=100).

human P-gp = biological target: T3, human P-gp (Homo sapiens, UniProt P08183); assay: Transcellular human P-gp assay (transfected LLC-PK1 cells); type: in vitro ADME; details: LLC-PK1 cells over-expressing human P-gp
T3 construct: expressed in transfected cells; host or cells: LLC-PK1 cells (porcine kidney epithelial cells)
T3 sequence (P08183 whole entry): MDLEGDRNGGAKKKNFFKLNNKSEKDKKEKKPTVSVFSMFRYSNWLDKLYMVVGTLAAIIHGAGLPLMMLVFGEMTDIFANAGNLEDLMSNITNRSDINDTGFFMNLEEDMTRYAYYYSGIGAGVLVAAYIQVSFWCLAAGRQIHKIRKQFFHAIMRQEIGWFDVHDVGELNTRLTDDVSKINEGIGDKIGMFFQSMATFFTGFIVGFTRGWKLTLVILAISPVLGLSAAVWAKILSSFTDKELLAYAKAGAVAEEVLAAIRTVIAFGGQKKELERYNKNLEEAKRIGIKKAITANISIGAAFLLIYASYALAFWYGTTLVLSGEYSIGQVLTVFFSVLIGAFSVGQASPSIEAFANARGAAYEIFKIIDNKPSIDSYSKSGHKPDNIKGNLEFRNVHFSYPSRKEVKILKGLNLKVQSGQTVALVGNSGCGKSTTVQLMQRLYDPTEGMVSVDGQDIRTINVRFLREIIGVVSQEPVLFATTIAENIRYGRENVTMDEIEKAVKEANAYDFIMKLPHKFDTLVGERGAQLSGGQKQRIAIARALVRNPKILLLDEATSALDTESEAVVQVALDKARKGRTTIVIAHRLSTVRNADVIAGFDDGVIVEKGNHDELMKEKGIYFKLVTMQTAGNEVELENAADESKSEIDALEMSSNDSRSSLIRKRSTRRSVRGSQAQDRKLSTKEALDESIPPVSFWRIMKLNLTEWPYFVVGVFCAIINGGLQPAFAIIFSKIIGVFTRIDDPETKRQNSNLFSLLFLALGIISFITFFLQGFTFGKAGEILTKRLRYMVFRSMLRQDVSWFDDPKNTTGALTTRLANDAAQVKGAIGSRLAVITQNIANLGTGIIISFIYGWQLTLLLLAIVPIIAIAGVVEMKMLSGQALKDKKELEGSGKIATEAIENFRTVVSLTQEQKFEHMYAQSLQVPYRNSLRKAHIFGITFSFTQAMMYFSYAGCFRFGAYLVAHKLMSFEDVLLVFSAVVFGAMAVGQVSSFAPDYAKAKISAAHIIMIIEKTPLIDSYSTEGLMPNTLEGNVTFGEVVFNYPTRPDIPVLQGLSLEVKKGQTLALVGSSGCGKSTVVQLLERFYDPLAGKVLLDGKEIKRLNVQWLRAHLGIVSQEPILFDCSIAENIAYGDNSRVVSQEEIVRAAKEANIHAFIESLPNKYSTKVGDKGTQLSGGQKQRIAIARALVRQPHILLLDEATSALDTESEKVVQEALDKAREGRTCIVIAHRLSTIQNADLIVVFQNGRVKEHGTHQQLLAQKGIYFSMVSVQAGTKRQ
Text: The general assay uses transfected LLC-PK1 cells (porcine kidney epithelial cells) over-expressing human or mouse P-gp, cultured on 96 well semi-permeable filter membrane plates, where they form a polarized monolayer with tight junctions, and act as a barrier between the apical and basolateral compartment.
P-gp is expressed in the apical-facing membrane of the monolayer.

T1 sequence (Q96P20 whole entry): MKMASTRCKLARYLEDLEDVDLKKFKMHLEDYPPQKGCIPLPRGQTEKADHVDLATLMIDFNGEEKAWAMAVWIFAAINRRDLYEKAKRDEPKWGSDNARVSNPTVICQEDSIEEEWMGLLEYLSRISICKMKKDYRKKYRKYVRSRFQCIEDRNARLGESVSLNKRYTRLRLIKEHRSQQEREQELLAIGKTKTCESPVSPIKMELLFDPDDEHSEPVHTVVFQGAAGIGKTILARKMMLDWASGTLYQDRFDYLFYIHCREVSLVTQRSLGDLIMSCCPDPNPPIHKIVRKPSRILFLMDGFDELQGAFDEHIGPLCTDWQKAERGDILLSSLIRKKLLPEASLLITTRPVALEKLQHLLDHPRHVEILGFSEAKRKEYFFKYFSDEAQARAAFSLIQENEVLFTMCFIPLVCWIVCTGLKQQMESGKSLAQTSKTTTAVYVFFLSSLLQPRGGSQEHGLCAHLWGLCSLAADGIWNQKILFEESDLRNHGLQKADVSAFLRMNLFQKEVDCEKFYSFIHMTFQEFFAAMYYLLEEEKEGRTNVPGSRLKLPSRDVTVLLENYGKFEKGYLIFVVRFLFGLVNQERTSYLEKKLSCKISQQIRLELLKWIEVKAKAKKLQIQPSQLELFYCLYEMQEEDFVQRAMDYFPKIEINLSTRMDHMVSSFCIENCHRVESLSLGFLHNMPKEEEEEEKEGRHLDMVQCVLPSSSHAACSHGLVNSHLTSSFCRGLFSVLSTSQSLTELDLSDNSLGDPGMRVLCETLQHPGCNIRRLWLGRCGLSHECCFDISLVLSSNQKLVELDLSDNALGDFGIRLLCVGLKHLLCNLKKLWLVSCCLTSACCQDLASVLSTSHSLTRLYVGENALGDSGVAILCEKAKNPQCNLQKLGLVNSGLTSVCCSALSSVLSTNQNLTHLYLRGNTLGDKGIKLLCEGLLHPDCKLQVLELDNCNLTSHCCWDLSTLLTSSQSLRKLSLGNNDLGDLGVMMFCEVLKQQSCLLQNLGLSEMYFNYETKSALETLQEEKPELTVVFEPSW

Compound	pIC50 (NLRP3 [1])	pIC50 (NLRP3 [2])	IC20 [3] [nM]	efflux ratio (human P-gp; read-out: ER (efflux ratio))	Papp (human P-gp; read-out: Permeability) [×10⁻⁶ cm/s]
Cc1nc(N[C@@H]2CCCN(CCCC(=O)N3CCC(O)C3)C2)nnc1-c1ccc2c(c1O)CCO2 (mixture of isomers) [Example 15, 1-(3-Hydroxypyrrolidin-1-yl)-4-[rac-(3R)-3-[[6-(4-hydroxy-2,3-dihydrobenzofuran-5-yl)-5-methyl-1,2,4-triazin-3-yl]amino]-1-piperidyl]butan-1-one; formic acid]	7.24	7.48	–	–	–
Cc1nc(N[C@@H]2CCCN(CC3(O)CC3)C2)nnc1-c1ccc2c(c1O)CCO2 [Example 4, 5-[3-[[(3R)-1-[(1-Hydroxycyclopropyl)methyl]-3-piperidyl]amino]-5-methyl-1,2,4-triazin-6-yl]-2,3-dihydrobenzofuran-4-ol]	7.77	7.48	–	–	–
COCCN1CCC[C@@H](Nc2nnc(-c3ccc4c(c3O)CCO4)c(C)n2)C1 [Example 5, 5-[3-[[(3R)-1-(2-Methoxyethyl)-3-piperidyl]amino]-5-methyl-1,2,4-triazin-6-yl]-2,3-dihydrobenzofuran-4-ol; formic acid salt]	7.72	7.82	–	–	–
CCN1C[C@@H](O)C[C@@H](Nc2nnc(-c3ccc4c(c3O)CCO4)c(C)n2)C1 [Example 6, (3S,5R)-1-Ethyl-5-[[6-(4-hydroxy-2,3-dihydrobenzofuran-5-yl)-5-methyl-1,2,4-triazin-3-yl]amino]piperidin-3-ol]	7.55	7.64	–	–	–
COC(C)CN1CCC[C@@H](Nc2nnc(-c3ccc4c(c3O)CCO4)c(C)n2)C1 (stereo partly drawn) [Example 7, 5-[5-Methyl-3-[[(3R)-1-(2-methoxypropyl)-3-piperidyl]amino]-1,2,4-triazin-6-yl]-2,3-dihydrobenzofuran-4-ol]	7.21	7.40	–	–	–
Cc1nc(N[C@@H]2CCCN(C3COC3)C2)nnc1-c1ccc2c(c1O)CCO2 [Example 8, 5-[5-Methyl-3-[[(3R)-1-(oxetan-3-yl)-3-piperidyl]amino]-1,2,4-triazin-6-yl]-2,3-dihydrobenzofuran-4-ol]	6.92	–	–	–	–
CNC(=O)CCCN1CCC[C@@H](Nc2nnc(-c3ccc4c(c3O)CCO4)c(C)n2)C1 [Example 10, 4-[(3R)-3-[[6-(4-hydroxy-2,3-dihydrobenzofuran-5-yl)-5-methyl-1,2,4-triazin-3-yl]amino]-1-piperidyl]-N-methyl-butanamide]	7.57	7.40	2900	8.5	12.2
Cc1nc(N[C@@H]2CCCN(CCCC(=O)N(C)C)C2)nnc1-c1ccc2c(c1O)CCO2 [Example 12, 4-[(3R)-3-[[6-(4-Hydroxy-2,3-dihydrobenzofuran-5-yl)-5-methyl-1,2,4-triazin-3-yl]amino]-1-piperidyl]-N,N-dimethyl-butanamide]	7.28	7.52	–	–	–
Cc1nc(N[C@@H]2CCCN(CCCC(=O)N(C)CCO)C2)nnc1-c1ccc2c(c1O)CCO2 [Example 14]	7.12	–	–	–	–
Cc1nc(N[C@@H]2CCCN(CCCC(=O)N3CCOCC3)C2)nnc1-c1ccc2c(c1O)CCO2 [Example 16, 4-[(3R)-3-[[6-(4-Hydroxy-2,3-dihydrobenzofuran-5-yl)-5-methyl-1,2,4-triazin-3-yl]amino]-1-piperidyl]-1-morpholino-butan-1-one]	7.40	7.34	–	–	–
Cc1nc(N[C@@H]2CCCN(CCn3cccn3)C2)nnc1-c1ccc2c(c1O)CCO2 [Example 17, 5-[5-Methyl-3-[[(3R)-1-(2-pyrazol-1-ylethyl)-3-piperidyl]amino]-1,2,4-triazin-6-yl]-2,3-dihydrobenzofuran-4-ol]	7.46	7.12	–	–	–
Cc1nc(N[C@@H]2CCCN(CCCc3nnn[nH]3)C2)nnc1-c1ccc2c(c1O)CCO2 [Example 18, 5-[5-Methyl-3-[[(3R)-1-[3-(1H-tetrazol-5-yl)propyl]-3-piperidyl]amino]-1,2,4-triazin-6-yl]-2,3-dihydrobenzofuran-4-ol; formic acid]	7.64	7.64	–	–	–
Cc1nc(N[C@@H]2CCCN(CCCC#N)C2)nnc1-c1ccc2c(c1O)CCO2 [Example 19, 4-[(3R)-3-[[6-(4-Hydroxy-2,3-dihydrobenzofuran-5-yl)-5-methyl-1,2,4-triazin-3-yl]amino]-1-piperidyl]butanenitrile]	7.70	7.59	–	–	–
Cc1nc(N[C@@H]2CCCN(CCCc3ncco3)C2)nnc1-c1ccc2c(c1O)CCO2 [Example 20, 5-[5-Methyl-3-[[(3R)-1-(3-oxazol-2-ylpropyl)-3-piperidyl]amino]-1,2,4-triazin-6-yl]-2,3-dihydrobenzofuran-4-ol]	7.80	7.74	–	–	–
Cc1nc(N[C@@H]2CCCN(CCc3nnn[nH]3)C2)nnc1-c1ccc2c(c1O)CCO2 [Example 21, 5-[5-Methyl-3-[[(3R)-1-[2-(1H-tetrazol-5-yl)ethyl]-3-piperidyl]amino]-1,2,4-triazin-6-yl]-2,3-dihydrobenzofuran-4-ol]	7.70	6.78	–	–	–
Cc1nc(N[C@@H]2CCCN(CCCS(C)(=O)=O)C2)nnc1-c1ccc2c(c1O)CCO2 [Example 22, 5-[5-Methyl-3-[[(3R)-1-(3-methylsulfonylpropyl)-3-piperidyl]amino]-1,2,4-triazin-6-yl]-2,3-dihydrobenzofuran-4-ol]	7.24	7.27	–	–	–

Source: US20260200901A1, “NOVEL COMPOUNDS AS MODULATORS OF NLRP3 INHIBITION” (Hoffmann-La Roche Inc., priority 2022, published 2026)
